Measurements: publication PMC4071583, “Potent Cytotoxic Peptides from the Australian Marine Sponge Pipestela candelabra” (Marine Drugs, 2014)
Read-outs that look alike come from different tables or passages of the source.

What was measured:
[1] = test system: Human prostate adenocarcinoma cells (PC3); assay: Cytotoxicity assay (Alamar blue), human prostate cancer cells PC3; assay type: cell-based; settings: for IC50: Homo sapiens, read-out: IC50 PC3
Description: (§1) Human prostate adenocarcinoma cells (PC3) and human neonatal foreskin fibroblast (noncancer cells, NFF) were grown in media RPMI-1640 (Life Technologies, Grand Island, NY, USA) supplemented with 10% foetal bovine serum (FBS). Cells were grown under 5% CO2 in a humidified environment at 37°C. Fifty microlitres of media containing 500 cells were added to a 384 well microtitre plate (Perkin Elmer, Waltham, MA, USA, part number: 6007660) containing 0.2 μL of a compound. Final compound concentration range tested was 10 μM to 1 pM (final DMSO concentration of 0.4%). Each concentration in media was tested in triplicate and in two independent experiments. Cells and compounds were then incubated in 72 h at 37 °C, 5% CO2 and 80% humidity. Cell proliferation was measured with the addition of 10 μL of a 60% Alamar blue (Invitrogen, Carlsbad, CA, USA) solution in media to each well of the microtitre plate to give a final concentration of 10% Alamar blue. The plates were incubated at 37 °C, 5% CO2 and 80% humidity within 24 h. The fluorescence of each well was read at excitation 535 nm and emission 590 nm on the Perkin Elmer EnVision Multilabel Reader 2104. Eight-point concentration response curves were then analysed using non-linear regression and IC50 values determined by using GraphPad Prism 5 (GraphPad Software Inc., La Jolla, CA, USA). Paclitaxel and doxorubicin were used during each screening as positive control compounds.

[2] = test system: human neonatal foreskin fibroblast (noncancer cells, NFF); assay: Cytotoxicity assay (Alamar blue), human neonatal foreskin fibroblast non-cancer cells NFF; assay type: cell-based; settings: for IC50: read-out: IC50 NFF
Description: as §1

[3] = test system: human xenograft cancer models; parameters: method as in PMID 19825803; settings: many human xenograft cancer models; cited from earlier work
[4] = Auto-oxidation on storage, LC/MS analysis; assay type: physicochemical; settings: dried compound stored at room temperature for a few months
Description: We noticed that the dried milnamides A (5) and E (1) changed from white powders to yellow powders when the compounds were stored at room temperature for a few months. […] As in the previous study, we are unable to determine if milnamides A (5) and E (1) are naturally occurring or produced by auto-oxidation.

[5] = test system: murine leukemia L1210 cell line; parameters: method as in doi:10.1016/0040-4039(90)87015-R; settings: cited from earlier work
advanced solid tumors = test system: advanced solid tumors; parameters: method as in PMID 19096380; settings: cited from earlier work
[6] = parameters: method as in PMID 15547903; settings: cited from earlier work
[7] = PC-3, PC3 cells, 72 h incubation, Alamar blue, mean of two independent experiments in triplicate
[8] = NFF cells, 72 h incubation, Alamar blue, mean of two independent experiments in triplicate

Question: What does the source list for `COc1cccc2c1C(=O)c1c(O)c3c(c(O)c1C2=O)C[C@@](O)(C(=O)CO)C[C@@H]3O[C@H]1C[C@H](N)[C@H](O)[C@H](C)O1` [Doxorubicin, doxorubicin, reference compound]?
Answer: IC50 [1, 7]: 359 nM; IC50 [2, 8]: 530 nM

Question: For `C/C(=C\[C@H](C(C)C)N(C)C(=O)[C@@H](NC(=O)[C@H]1CCCCN1C(C)C)C(C)(C)C)C(=O)O` [Compound E7974], which “in vivo antitumor efficacy” value [3] is on record?
Answer: strong in vivo antitumor efficacy

Question: For `C/C(=C\[C@H](C(C)C)N(C)C(=O)[C@@H](NC(=O)[C@H]1N(C)C(=O)c2c(c3ccccc3n2C)C1(C)C)C(C)(C)C)C(=O)O` [Compound 6, milnamide C], which IC50 ([1]; PC-3, 72 h) is on record?
Answer: 31.7 nM

Question: And the IC50 ([2]; NFF, 72 h)?
Answer: 188 nM

Question: With `CC(=CC(C(C)C)N(C)C(=O)C(NC(=O)C1N(C)C(=O)c2[nH]c3ccccc3c2C1(C)C)C(C)(C)C)C(=O)O` (stereo not shown) [Compound 2, milnamide F] as the compound, how does the IC50 ([1]; PC-3, 72 h) read?
Answer: 2180 nM

Question: What about the IC50 ([2]; NFF, 72 h) of the same compound?
Answer: 5650 nM

Question: With `CC(=CC(C(C)C)N(C)C(=O)C(NC(=O)C1N(C)Cc2[nH]c3ccccc3c2C1(C)C)C(C)(C)C)C(=O)O` (stereo not shown) [Compound 1, milnamide E] as the compound, how does the IC50 ([1]; PC-3, 72 h) read?
Answer: 34.2 nM

Question: And the IC50 ([2]; NFF, 72 h)?
Answer: 123 nM

Question: And the “milnamide D (7) or G (3) formed by auto-oxidation (LC/MS)” value [4]?
Answer: 5%–10%

Question: Which IC50 ([1]; PC-3, 72 h) does the source give for `C/C1=C\[C@@H](C)C[C@@H](C)OC(=O)[C@@H](C)NC(=O)[C@H](Cc2ccc(O)c(I)c2)N(C)C(=O)CNC(=O)[C@H](C)C1` [Compound 10, geodiamolide D] here?
Answer: 33.1 nM

Question: What about the “fold more potent than geodiamolide E (11)” value ([1]; PC3 cells, comparator 11) of the same compound?
Answer: 4 fold

Question: What about the “fold more active than geodiamolide F (12)” value ([1]; PC3 cells, comparator 12) of the same compound?
Answer: 5 fold

Question: What about the IC50 ([2]; NFF, 72 h) of the same compound?
Answer: 99.1 nM

Question: And the IC50 [5]?
Answer: 62.2 nM

Question: Which results are given for `C/C1=C\[C@@H](C)C[C@@H](C)OC(=O)[C@@H](C)NC(=O)[C@H](Cc2ccc(O)c(Cl)c2)N(C)C(=O)CNC(=O)[C@H](C)C1` [Compound 12, geodiamolide F]?
Answer: IC50 ([1]; PC-3, 72 h): 155 nM; IC50 ([2]; NFF, 72 h): 708 nM; IC50 [5]: 11.2 nM

Question: Which IC50 ([1]; PC-3, 72 h) does the source give for `CC(=CC(C(C)C)N(C)C(=O)C(NC(=O)C1[N+](C)=Cc2[nH]c3ccccc3c2C1(C)C)C(C)(C)C)C(=O)O` (stereo not shown) [Compound 3, milnamide G] here?
Answer: 2870 nM

Question: And the inhibition at 10 µM ([2]; NFF, read-out: % Inhibition NFF)?
Answer: 39%

Question: With `C/C(=C\[C@H](C(C)C)N(C)C(=O)[C@@H](NC(=O)[C@H]1[N+](C)=Cc2c(c3ccccc3n2C)C1(C)C)C(C)(C)C)C(=O)O` [Compound 7, milnamide D] as the compound, how does the IC50 ([1]; PC-3, 72 h) read?
Answer: 381 nM

Question: What about the IC50 ([2]; NFF, 72 h) of the same compound?
Answer: 1190 nM

Question: What does the source list for `CN[C@H](C(=O)N[C@H](C(=O)N(C)[C@H](/C=C(\C)C(=O)O)C(C)C)C(C)(C)C)C(C)(C)c1cn(C)c2ccccc12` [Compound 8, hemiasterlin]?
Answer: IC50 ([1]; PC-3, 72 h): 0.0484 nM; fold more cytotoxic than hemiasterlin A (9) ([1]; comparator 9): six-fold; IC50 ([2]; NFF, 72 h): 0.404 nM

Question: With `CN[C@H](C(=O)N[C@H](C(=O)N(C)[C@H](/C=C(\C)C(=O)O)C(C)C)C(C)(C)C)C(C)(C)c1ccccc1` [HTI-286] as the compound, how does the common toxicities observed (advanced solid tumors) read?
Answer: neutropaenia, nausea, alopecia, and pain

Question: What about the objective responses (advanced solid tumors; phase II trial halted) of the same compound?
Answer: no objective responses

Question: Which results are given for `C/C1=C\[C@@H](C)C[C@@H](C)OC(=O)[C@@H](C)NC(=O)[C@H](Cc2ccc(O)c(Br)c2)N(C)C(=O)CNC(=O)[C@H](C)C1` [Compound 11, geodiamolide E]?
Answer: IC50 ([1]; PC-3, 72 h): 118 nM; IC50 ([2]; NFF, 72 h): 425 nM; IC50 [5]: 24.2 nM

Question: Which results are given for `CC(=O)O[C@H]1C(=O)[C@@]2(C)[C@H]([C@H](OC(=O)c3ccccc3)[C@]3(O)C[C@H](OC(=O)[C@H](O)[C@@H](NC(=O)c4ccccc4)c4ccccc4)C(C)=C1C3(C)C)[C@]1(OC(C)=O)CO[C@@H]1C[C@@H]2O` [Taxol, Paclitaxel, reference compound]?
Answer: IC50 [1, 7]: 2.26 nM; IC50 [2, 8]: 3.94 nM

Question: For `CNC(C(=O)NC(C(=O)N(C)C(C=C(C)C(=O)O)C(C)C)C(C)(C)C)C(C)(C)c1cn(C(O)C(=O)NC(C(=O)N(C)C(C=C(C)C(=O)O)C(C)C)C(C)(C)C)c2ccccc12` (stereo not shown) [Compound 4, hemiasterlin D], which IC50 ([1]; PC-3, 72 h) is on record?
Answer: 2.2 nM

Question: And the IC50 ([2]; NFF, 72 h)?
Answer: 8.16 nM

Question: Which IC50 ([1]; PC-3, 72 h) does the source give for `C/C(=C\[C@H](C(C)C)N(C)C(=O)[C@@H](NC(=O)[C@H]1N(C)Cc2c(c3ccccc3n2C)C1(C)C)C(C)(C)C)C(=O)O` [Compound 5, milnamide A] here?
Answer: 11 nM

Question: And the “fold more potent than milnamide C (6)” value ([1]; PC3 cells, comparator 6)?
Answer: 3 fold

Question: And the “fold more potent than milnamide C (7)” value ([1]; PC3 cells, comparator 7)?
Answer: 35 fold

Question: What about the IC50 ([2]; NFF, 72 h) of the same compound?
Answer: 70.6 nM

Question: And the “milnamide D (7) or G (3) formed by auto-oxidation (LC/MS)” value [4]?
Answer: 5%–10%

Question: What about the “auto-oxidation while standing in chloroform” value [6] of the same compound?
Answer: auto-oxidized slowly to milamide D (7)
